This data set is described as follows: Retention time of the compound in human liver microsomes after 5 mins in presence of NADPH by LC-MS/MS analysis. Format: ADME, Microsome. A general note: Microsomes from liver hold many membrane-bound enzymes, among them those of drug oxidation.

Turning to `CSc1cc(C)nc(SC)c1NC(=O)CN1CCN(CC[S+]([O-])c2nc3ccccc3[nH]2)CC1` (stereo unspecified), the Retention_time turned out to be 5.78 min.
